Our source for the EC50 values is patent US20200354426A1 (MEDIMMUNE LIMITED, priority 2016, published 2020).

Numbered stars: 1 amine (or outer) side, 2 acyl side, 3 side chain; on linkers, the order of the positions; unused ones are H or OH. Side chains are listed from the residue outwards. Peptide text beside a SMILES is read from it. * marks the point of attachment. γGlu = O=C(O)[C@H](CCC(=O)[*:2])N[*:1]; Palmitoyl = CCCCCCCCCCCCCCCC(=O)*; Ahx = NCCCCCC(=O)O

A word on the EC50: it is the concentration needed to bring the measured effect to its halfway point.

Holding throughout (assay): cAMP activity assay in assay medium (assay 1)
Common to all, as to type: cell-based

In assay [1] the target is T1, Human GIPr (Homo sapiens, UniProt P48546).
T1 construct: expressed in transfected cells
T1 sequence (P48546 22-466): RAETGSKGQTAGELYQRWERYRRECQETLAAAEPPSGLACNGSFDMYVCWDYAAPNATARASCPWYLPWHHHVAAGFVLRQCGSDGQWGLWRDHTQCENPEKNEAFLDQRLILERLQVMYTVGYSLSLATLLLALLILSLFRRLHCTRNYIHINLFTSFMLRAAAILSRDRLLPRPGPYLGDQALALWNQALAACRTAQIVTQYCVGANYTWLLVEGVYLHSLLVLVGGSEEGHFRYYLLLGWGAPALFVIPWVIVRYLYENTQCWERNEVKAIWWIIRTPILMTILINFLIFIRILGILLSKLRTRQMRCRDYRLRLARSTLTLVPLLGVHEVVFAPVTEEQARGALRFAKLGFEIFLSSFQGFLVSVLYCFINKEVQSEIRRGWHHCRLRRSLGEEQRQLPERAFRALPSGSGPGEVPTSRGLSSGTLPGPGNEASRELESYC
The note with it: assay medium; Table 4; read-out: hGIPR EC50. The text has this:
(§1) Biological Activity of Peptides in Cell-Based cAMP Activity Assay (Assay 1):
(§2) All sample dilutions were made in duplicate.

Assay [2] deals with T2, Human GlucR (Homo sapiens, UniProt P47871).
T2 construct: expressed in transfected cells
T2 sequence (P47871 26-477): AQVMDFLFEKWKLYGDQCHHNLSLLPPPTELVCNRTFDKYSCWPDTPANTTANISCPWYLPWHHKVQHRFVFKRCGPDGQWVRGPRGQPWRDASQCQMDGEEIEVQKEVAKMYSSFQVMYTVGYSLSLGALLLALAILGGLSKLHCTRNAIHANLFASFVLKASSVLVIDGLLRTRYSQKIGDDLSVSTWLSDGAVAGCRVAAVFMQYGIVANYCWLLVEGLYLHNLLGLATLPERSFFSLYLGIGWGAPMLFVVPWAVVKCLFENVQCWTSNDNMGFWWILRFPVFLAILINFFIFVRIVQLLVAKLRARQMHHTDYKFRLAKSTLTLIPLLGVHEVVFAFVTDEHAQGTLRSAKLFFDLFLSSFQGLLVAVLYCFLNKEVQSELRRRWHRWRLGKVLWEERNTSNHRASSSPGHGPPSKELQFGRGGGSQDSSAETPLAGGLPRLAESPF
The following applies: assay medium; Table 4; read-out: hGlucR EC50.
Text: as §1, §2

Assay [3] concerns the target Human GLP1R (Homo sapiens, UniProt P43220). Also noted: expressed in transfected cells. The note with it: assay medium; Table 4; read-out: hGLP1R EC50.
Text: as §1, §2

Human GLP1R, sequence (P43220 24-463): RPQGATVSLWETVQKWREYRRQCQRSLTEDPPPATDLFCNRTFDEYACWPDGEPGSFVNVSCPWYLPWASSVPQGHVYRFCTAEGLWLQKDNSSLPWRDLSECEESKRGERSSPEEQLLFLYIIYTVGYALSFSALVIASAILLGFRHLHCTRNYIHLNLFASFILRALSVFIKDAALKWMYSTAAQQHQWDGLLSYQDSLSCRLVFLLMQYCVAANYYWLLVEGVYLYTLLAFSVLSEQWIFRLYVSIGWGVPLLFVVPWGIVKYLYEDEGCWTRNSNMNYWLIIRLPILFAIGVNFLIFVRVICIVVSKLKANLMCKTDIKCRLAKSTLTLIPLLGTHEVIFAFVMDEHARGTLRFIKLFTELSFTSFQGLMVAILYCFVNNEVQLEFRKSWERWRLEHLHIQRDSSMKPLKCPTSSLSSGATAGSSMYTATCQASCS

Consider `CCCCCCCCCCCCCCCC(=O)N[C@@H](CCC(=O)NCCCC[C@H](NC(=O)[C@H](Cc1ccc(O)cc1)NC(=O)[C@H](CCCCN)NC(=O)[C@H](CO)NC(=O)[C@H](Cc1ccc(O)cc1)NC(=O)[C@H](CC(=O)O)NC(=O)[C@H](CO)NC(=O)[C@@H](NC(=O)[C@H](Cc1ccccc1)NC(=O)[C@@H](NC(=O)CNC(=O)[C@H](CCC(N)=O)NC(=O)[C@H](CO)NC(=O)[C@@H](N)Cc1c[nH]cn1)[C@@H](C)O)[C@@H](C)O)C(=O)N[C@@H](CC(=O)O)C(=O)N[C@@H](CO)C(=O)N[C@@H](CCCNC(=N)N)C(=O)N[C@@H](CO)C(=O)N[C@@H](C)C(=O)N[C@@H](CCC(N)=O)C(=O)N[C@@H](CC(=O)O)C(=O)N[C@@H](Cc1ccccc1)C(=O)N[C@H](C(=O)N[C@@H](CCC(N)=O)C(=O)N[C@@H](Cc1c[nH]c2ccccc12)C(=O)N[C@@H](CC(C)C)C(=O)N[C@H](C(=O)N[C@@H](C)C(=O)NCC(=O)NCC(N)=O)C(C)C)C(C)C)C(=O)O` [g670] (H-HSQGTFTSDYSKYK([γGlu-Palmitoyl])DSRSAQDFVQWLVAGG-NH2; N-terminus assumed), for which the EC50 in assay [1] stood at 14.9 nM; in assay [2] it was 0.008 nM; in assay [3] it was 0.0203 nM.

As for `CCCCCCCCCCCCCCCC(=O)N[C@@H](CCC(=O)NCCCC[C@H](NC(=O)[C@H](CO)NC(=O)[C@H](CC(=O)O)NC(=O)[C@H](CC(C)C)NC(=O)[C@H](Cc1ccc(O)cc1)NC(=O)[C@H](CCC(=O)O)NC(=O)[C@H](CO)NC(=O)[C@H](Cc1ccc(O)cc1)NC(=O)[C@H](CC(=O)O)NC(=O)[C@H](CO)NC(=O)[C@@H](NC(=O)[C@H](Cc1ccccc1)NC(=O)[C@@H](NC(=O)CNC(=O)[C@H](CCC(N)=O)NC(=O)CNC(=O)[C@@H](N)Cc1c[nH]cn1)[C@@H](C)O)[C@@H](C)O)C(=O)N[C@@H](CCCNC(=N)N)C(=O)N[C@@H](C)C(=O)N[C@@H](CCCNC(=N)N)C(=O)N[C@@H](CC(=O)O)C(=O)N[C@@H](Cc1ccccc1)C(=O)N[C@H](C(=O)N[C@@H](C)C(=O)N[C@@H](Cc1c[nH]c2ccccc12)C(=O)N[C@@H](CC(C)C)C(=O)N[C@H](C(=O)N[C@@H](C)C(=O)NCC(=O)NCC(N)=O)C(C)C)C(C)C)C(=O)O` [g675] (H-HGQGTFTSDYSEYLDSK([γGlu-Palmitoyl])RARDFVAWLVAGG-NH2; N-terminus assumed), the EC50 turned out to be 1610 nM in assay [1], 38.4 nM in assay [2] and 0.151 nM in assay [3].

On to `CCCCCCCCCCCCCCCC(=O)N[C@@H](CCC(=O)NCCCC[C@H](NC(=O)[C@H](CO)NC(=O)[C@H](CC(=O)O)NC(=O)[C@H](CC(C)C)NC(=O)[C@H](Cc1ccc(O)cc1)NC(=O)[C@H](CCCCN)NC(=O)[C@H](CO)NC(=O)[C@H](Cc1ccc(O)cc1)NC(=O)[C@H](CC(=O)O)NC(=O)[C@H](CO)NC(=O)[C@@H](NC(=O)[C@H](Cc1ccccc1)NC(=O)[C@@H](NC(=O)CNC(=O)[C@H](CCC(N)=O)NC(=O)CNC(=O)[C@@H](N)Cc1c[nH]cn1)[C@@H](C)O)[C@@H](C)O)C(=O)N[C@@H](CCCNC(=N)N)C(=O)N[C@@H](C)C(=O)N[C@@H](CCC(=O)O)C(=O)N[C@@H](CC(=O)O)C(=O)N[C@@H](Cc1ccccc1)C(=O)N[C@H](C(=O)N[C@@H](CCC(N)=O)C(=O)N[C@@H](Cc1c[nH]c2ccccc12)C(=O)N[C@@H](CC(C)C)C(=O)N[C@H](C(=O)N[C@@H](C)C(=O)NCC(=O)NCC(N)=O)C(C)C)C(C)C)C(=O)O` [g678] (H-HGQGTFTSDYSKYLDSK([γGlu-Palmitoyl])RAEDFVQWLVAGG-NH2; N-terminus assumed), for which the EC50 in assay [1] was 123 nM; in assay [2] it was 4.52 nM; in assay [3], 0.106 nM.

Consider `CCCCCCCCCCCCCCCC(=O)N[C@@H](CCC(=O)NCCCC[C@H](NC(=O)[C@H](CO)NC(=O)[C@H](CC(=O)O)NC(=O)[C@H](CC(C)C)NC(=O)[C@H](Cc1ccc(O)cc1)NC(=O)[C@H](CCCCN)NC(=O)[C@H](CO)NC(=O)[C@H](Cc1ccc(O)cc1)NC(=O)[C@H](CC(=O)O)NC(=O)[C@H](CO)NC(=O)[C@@H](NC(=O)[C@H](Cc1ccccc1)NC(=O)[C@@H](NC(=O)CNC(=O)[C@H](CCC(N)=O)NC(=O)CNC(=O)[C@@H](N)Cc1c[nH]cn1)[C@@H](C)O)[C@@H](C)O)C(=O)N[C@@H](CCCNC(=N)N)C(=O)N[C@@H](C)C(=O)N[C@@H](CCC(N)=O)C(=O)N[C@@H](CC(=O)O)C(=O)N[C@@H](Cc1ccccc1)C(=O)N[C@H](C(=O)N[C@@H](CCC(=O)O)C(=O)N[C@@H](Cc1c[nH]c2ccccc12)C(=O)N[C@@H](CC(C)C)C(=O)N[C@H](C(=O)N[C@@H](C)C(=O)NCC(=O)NCC(N)=O)C(C)C)C(C)C)C(=O)O` [g679] (H-HGQGTFTSDYSKYLDSK([γGlu-Palmitoyl])RAQDFVEWLVAGG-NH2; N-terminus assumed), for which the EC50 in assay [1] was 117 nM; in assay [2], 0.189 nM; in assay [3], 0.135 nM.

As for `CCCCCCCCCCCCCCCC(=O)N[C@@H](CCC(=O)NCCCC[C@H](NC(=O)[C@H](CO)NC(=O)[C@H](CC(=O)O)NC(=O)[C@H](CC(C)C)NC(=O)[C@H](Cc1ccc(O)cc1)NC(=O)[C@H](CCCCN)NC(=O)[C@H](CO)NC(=O)[C@H](Cc1ccc(O)cc1)NC(=O)[C@H](CC(=O)O)NC(=O)[C@H](CO)NC(=O)[C@@H](NC(=O)[C@H](Cc1ccccc1)NC(=O)[C@@H](NC(=O)CNC(=O)[C@H](CCC(N)=O)NC(=O)CNC(=O)[C@@H](N)Cc1c[nH]cn1)[C@@H](C)O)[C@@H](C)O)C(=O)N[C@@H](CCCNC(=N)N)C(=O)N[C@@H](C)C(=O)N[C@@H](CCC(=O)O)C(=O)N[C@@H](CC(=O)O)C(=O)N[C@@H](Cc1ccccc1)C(=O)N[C@H](C(=O)N[C@@H](CCC(=O)O)C(=O)N[C@@H](Cc1c[nH]c2ccccc12)C(=O)N[C@@H](CC(C)C)C(=O)N[C@H](C(=O)N[C@@H](C)C(=O)NCC(=O)NCC(N)=O)C(C)C)C(C)C)C(=O)O` [g680] (H-HGQGTFTSDYSKYLDSK([γGlu-Palmitoyl])RAEDFVEWLVAGG-NH2; N-terminus assumed), the values for the EC50 in assay [1], in assay [2] and in assay [3] were 96.7 nM, 3.68 nM and 0.195 nM, respectively.

`CCCCCCCCCCCCCCCC(=O)N[C@@H](CCC(=O)NCCCC[C@H](NC(=O)[C@H](CO)NC(=O)[C@H](CC(=O)O)NC(=O)[C@H](CC(C)C)NC(=O)[C@H](Cc1ccc(O)cc1)NC(=O)[C@H](CCCCN)NC(=O)[C@H](CO)NC(=O)[C@H](Cc1ccc(O)cc1)NC(=O)[C@H](CC(=O)O)NC(=O)[C@H](CO)NC(=O)[C@@H](NC(=O)[C@H](Cc1ccccc1)NC(=O)[C@@H](NC(=O)CNC(=O)[C@H](CCC(=O)O)NC(=O)CNC(=O)[C@@H](N)Cc1c[nH]cn1)[C@@H](C)O)[C@@H](C)O)C(=O)N[C@@H](CCCNC(=N)N)C(=O)N[C@@H](C)C(=O)N[C@@H](CCC(=O)O)C(=O)N[C@@H](CC(=O)O)C(=O)N[C@@H](Cc1ccccc1)C(=O)N[C@H](C(=O)N[C@@H](CCC(=O)O)C(=O)N[C@@H](Cc1c[nH]c2ccccc12)C(=O)N[C@@H](CC(C)C)C(=O)N[C@H](C(=O)N[C@@H](C)C(=O)NCC(=O)NCC(N)=O)C(C)C)C(C)C)C(=O)O` [g681] (H-HGEGTFTSDYSKYLDSK([γGlu-Palmitoyl])RAEDFVEWLVAGG-NH2; N-terminus assumed): the EC50 in assay [1] was found to be 124 nM; in assay [2], 39.9 nM; in assay [3] it was 0.283 nM.

With `CCCCCCCCCCCCCCCC(=O)NCCCCCC(=O)NCCCC[C@H](NC(=O)[C@H](CO)NC(=O)[C@H](CC(=O)O)NC(=O)[C@H](CC(C)C)NC(=O)[C@H](Cc1ccc(O)cc1)NC(=O)[C@H](CCC(=O)O)NC(=O)[C@H](CO)NC(=O)[C@H](Cc1ccc(O)cc1)NC(=O)[C@H](CC(=O)O)NC(=O)[C@H](CO)NC(=O)[C@@H](NC(=O)[C@H](Cc1ccccc1)NC(=O)[C@@H](NC(=O)CNC(=O)[C@H](CCC(N)=O)NC(=O)CNC(=O)[C@@H](N)Cc1c[nH]cn1)[C@@H](C)O)[C@@H](C)O)C(=O)N[C@@H](CCCNC(=N)N)C(=O)N[C@@H](C)C(=O)N[C@@H](CCCNC(=N)N)C(=O)N[C@@H](CC(=O)O)C(=O)N[C@@H](Cc1ccccc1)C(=O)N[C@H](C(=O)N[C@@H](C)C(=O)N[C@@H](Cc1c[nH]c2ccccc12)C(=O)N[C@@H](CC(C)C)C(=O)N[C@@H](CCC(=O)O)C(=O)N[C@@H](CCCNC(=N)N)C(=O)NCC(=O)NCC(N)=O)C(C)C` [g684] (H-HGQGTFTSDYSEYLDSK([Ahx-Palmitoyl])RARDFVAWLERGG-NH2; N-terminus assumed), the EC50 in assay [1] came out at 146 nM; in assay [2], 0.164 nM; in assay [3], 0.0151 nM.
